Drawing on US8334316B2, “Substituted organosulfur compounds and methods of using thereof” (ACEA Biosciences, Inc., priority 2004, dated 2012), this text covers IC50 for 6 compounds.

What all share (format): cell-based
Assay [1] deals with OVCAR4 (human ovarian cancer cell line). In words: RT-CES system cell proliferation/cytotoxicity IC50, OVCAR4. Conditions: OVCAR-4, time point of maximum inhibition. An excerpt:
(§1) The RT-CES system comprises three components, an electronic sensor analyzer, a device station and 16× or 96× microtiter plate devices. Microelectrode sensor array was fabricated on glass slides with lithographical microfabrication methods and the electrode-containing slides are assembled to plastic trays to form electrode-containing wells. Each 16× (or 96×) microtiter plate device used in RT-CES system comprises up to 16 (or 96) such electrode-containing wells. The device station receives the 16× or 96× microtiter plate devices and is capable of electronically switching any one of the wells to the sensor analyzer for impedance measurement. In operation, the devices with cells cultured in the wells are placed into a device station that is located inside an incubator. Electrical cables connect the device station to the sensor analyzer. Under the RT-CES software control, the sensor analyzer can automatically select wells to be measured and continuously conduct impedance measurements. The impedance data from the analyzer is transferred to a computer, analyzed and processed by the integrated software.
(§2) To quantify cell status based on the measured cell-electrode impedance, a parameter termed Cell Index is derived, according to
(§3) [formula] where Rb(f) and Rcell(f) are the frequency dependent electrode resistances (a component of impedance) without cells or with cell present, respectively. N is the number of the frequency points at which the impedance is measured. Thus, Cell Index is a quantitative measure of the status of the cells in an electrode-containing well. Under the same physiological conditions, more cells attached on to the electrodes leads to larger Rcell(f) value, leading to a larger value for Cell Index. Furthermore, for the same number of cells present in the well, a change in the cell status such as morphology will lead to a change in the Cell Index. For example, an increase in cell adhesion or cell spreading leads to larger cell-electrode contact area which will lead to an increase in Rcell(f) and thus a larger value for Cell Index. The Cell Index may also be calculated using a formula different from the one described here. Other methods for calculating the Cell Index based on impedance measurement can be found in PCT application number PCT/US04/37696, fined on Nov. 12, 2004, PCT application number PCT/US05/04481, filed on Feb. 9, 2005, U.S. patent application Ser. No. 10/987,732, filed on Nov. 12, 2004, and U.S. patent application Ser. No. 11/055,639, filed on Feb. 9, 2005.
(§4) OVCAR4 cells (human ovarian cancer cells) were seeded into wells of 16× or 96× microtiter plate devices (electronic plates, i.e., the plates comprise microelectrode sensor arrays in the wells of the plate) with an initial seeding density of 10,000 cells per well and were pre-incubated in incubator under standard cell culture conditions for about 27 hrs. Dibenzyl trisulfide solution in DMSO was added into wells following the incubation period. The cell status was monitored prior to and after the compound addition using RT-CES system. The cell indexes of different wells were between 1.4 and 1.7 just before the compound addition. […] The cell index was normalized against the cell index values at a time point just after compound addition (about 28 hrs after cell seeding).
(§5) For the assay performed on the RT-CES system, the cells were seeded into the 16× or 96× microtiter plate devices (electronic plates, i.e., the plates comprise microelectrode sensor arrays in the wells of the plate) at the seeding density ranging from 5000 cells/well to 15,000 cells/well. The cells were incubated at 5% CO2 and 37° C. for overnight till the cell indices reached the growth phase where the cell index was between 0.8 and 1.2. Serially diluted compounds were then added to the cells followed by dynamic monitoring of the effect of the compounds on the cell proliferation and cytotoxicity. […]

The subject of assay [2] is H460 (human non small cell lung cancer cell line). The assay is described as follows: RT-CES system cell proliferation/cytotoxicity, H460. Conditions: NCI-H460, time point of maximum inhibition.
Description: In operation, the devices with cells cultured in the wells are placed into a device station that is located inside an incubator. […] Under the RT-CES software control, the sensor analyzer can automatically select wells to be measured and continuously conduct impedance measurements. The impedance data from the analyzer is transferred to a computer, analyzed and processed by the integrated software.
H460 cells (human lung cancer cells) were seeded into wells of 16× or 96× microtiter plate devices (electronic plates, i.e., the plates comprise microelectrode sensor arrays in the wells of the plate) with an initial seeding density of 8000 cells per well and were pre-incubated in incubator under standard cell culture conditions for about 22 hrs. […] The cell status was monitored prior to and after the compound addition using RT-CES system. […] The cell index was normalized against the cell index values at a time point just after compound addition (about 23 hrs after cell seeding).
For the assay performed on the RT-CES system, the cells were seeded into the 16× or 96× microtiter plate devices (electronic plates, i.e., the plates comprise microelectrode sensor arrays in the wells of the plate) at the seeding density ranging from 5000 cells/well to 15,000 cells/well. The cells were incubated at 5% CO2 and 37° C. for overnight till the cell indices reached the growth phase where the cell index was between 0.8 and 1.2. Serially diluted compounds were then added to the cells followed by dynamic monitoring of the effect of the compounds on the cell proliferation and cytotoxicity. The time-dependent IC50 values for each derivative were calculated based the dose responses of cell index value at different time points after compound treatment.
Another assay concerns A2780 cells. The assay is described as follows: MTT assay IC50 (48 h), A2780. The note with it: Homo sapiens; A2780, 48 hours. Here is the method: (§6) In another assay format, a test compound is assayed for its cytotoxicity and/or cytostatic effect on certain cancer cell types, using endpoint assay methods. Cells in the NCI cancer cell panel may be used. Cells after a pre-incubation for certain length of time (for example, 8 hrs or 24 hrs) are incubated with a test compound at serially-diluted concentrations (for example, five 10-fold dilutions) for 24 hrs and/or 48 hrs, and/or other specific length of time. The dose dependent cytotoxicity and/or cytostatic effects of test compounds can then be tested and evaluated using the 3-(4,5-dimethylthiazol-2-yl)-2,5-diphenyltetrazolium bromide (MTT) assay method, as described by, for example, Boyd (In Principle of Practice of Oncology, Devita, J. T., Hellman, S. and Rosenberg S. A. (Eds), 1989, Vol, 3, PPO Update, No. 10).
(§7) The anticancer potency of DBTS and its derivatives were tested in 8 different types of human cancer cell lines using the RT-CES system and MTT assay. The 8 cancer cell lines were HT1080 (the human fibrosarcoma cell line), H460 (human non small cell lung cancer cell line), OVCAR4 (the human ovarian cancer cell line), MCF7 (human breast cancer cell line) MDA-MB231 (M231, the human breast cancer cell line) A2780 (the human […] cancer cell line) Jurkat (the human T cell leukemia cell line). The test DBTS derivatives include ACEA100107, ACEA100108, ACEA100109, ACEA100111, ACEA100115, ACEA100116, ACEA100117, ACEA100118, ACEA100119, and ACEA100120.
(§8) For the MTT assay, the cells were seeded into the regular 96× well plates at the cell seeding density ranging from 5000 cells/well to 15,000 cells/well. The cells were incubated at 5% CO2 and 37° C. for overnight. The derivatives were serially diluted and added to the cells. The treatment was terminated after 48 hours of incubation by adding MTT staining reagent. After 4 hours, the staining was stopped by the stop buffer and then the calorimetric measurement was carried out on a microtiter plate reader at dual wave length, 650 nm and 550 nm.
Background: Formazan colour is commonly taken as a measure of viable cells.

Assay [3] concerns Jurkat (human T cell leukemia cell line). The assay is described as follows: MTT assay IC50 (48 h), Jurkat. The protocol:
as §6, §7, §8

The test system of assay [4] is MCF7 (human breast cancer cell line). The assay is described as follows: RT-CES system cell proliferation/cytotoxicity IC50, MCF7. The note with it: time point of maximum inhibition.
Description: as §1, §2, §3
as §4, with “MCF-7” for “OVCAR4”, “breast” for “ovarian”, “44” for “27”, “1.2” for “1.4”, “1.5” for “1.7”, “44.5” for “28”
as §5

For the compound `Fc1ccc(CSSSCc2ccc(F)cc2)cc1` [ACEA100108, Di(p-fluorobenzyl)trisulfide], the concentration for half-maximal inhibition (IC50) (as a rule, the midpoint of a concentration-inhibition curve) turned out to be 2 µM in assay [1]; 9.2 µM in assay [2]; 4700 nM in the assay with A2780 cells; 350 nM in assay [3]; 2.15 µM in assay [4].

`Clc1ccccc1CSSSCc1ccccc1Cl` [ACEA100115, Di(o-chlorobenzyl)trisulfide]: the IC50 in assay [1] came out at 0.5 µM; in assay [2], 23.2 µM; with A2780 cells, 1500 nM; in assay [3], 510 nM; in assay [4] it was 7.8 µM.

For the compound `Cc1cccc(CSSSCc2cccc(C)c2)c1` [ACEA100116, di(m-methylbenzyl)trisulfide], the IC50 in assay [1] was found to be 0.6 µM; in assay [2], 12.5 µM; in the assay with A2780 cells it was 800 nM; in assay [3], 300 nM; in assay [4], 2.75 µM.

For the compound `FC(F)(F)c1cccc(CSSSCc2cccc(C(F)(F)F)c2)c1` [ACEA100117, Di(m-trifluoromethylbenzyl)trisulfide], the IC50 is 33.5 µM in assay [1]; more than 50 µM in assay [2]; 11700 nM in the assay on A2780 cells; 8000 nM in assay [3]; 48.8 µM in assay [4].

For `Clc1ccc(CSSSCc2ccc(Cl)cc2)cc1` [ACEA100118, Di(p-chlorobenzyl)trisulfide], the IC50 in assay [1] was found to be 2.25 µM; in assay [2], 9.6 µM; in the assay on A2780 cells, 800 nM; in assay [3], 500 nM; in assay [4] it was 4.4 µM.

`c1ccc(CSSSCc2ccccc2)cc1` [DBTS, Dibenzyl trisulfide]: the IC50 was determined as 1.75 µM in assay [1]; 11.1 µM in assay [2]; 1200 nM with A2780 cells; 350 nM in assay [3]; 6.6 µM in assay [4].
